Measurements as given in US20210069083A1, “METHOD FOR IMPROVING SKIN WHITENING POWER OF A SKIN WHITENING AGENT” (Symrise AG, priority 2013, published 2021).

Test system: B16V mouse melanoma cells
Assay: Depigmentation effect on melanoma cell cultures (inhibition of pigmentation / melanin inhibition)
Format: cell-based
Settings: for IC50: Mus musculus, B16V cells, 0.3 mM tyrosine and 10 nM α-MSH, 96 h incubation, absorption at 400 nm
Description: B16V mouse melanoma cells are disseminated in a 96-well micro-titre plate in a concentration of 7.5×10^3 cells/well. After cultivation for 24 h at 37° C. and 5% CO2 in RPMI medium, enriched with 10% foetal calf serum, various concentrations of the test substances and 0.3 mM tyrosine and 10 nM α-MSH (α-melanocyte stimulating hormone) are added and incubated for a further 96 h. The maximum concentration of the test substances used corresponds to 0.1 times the value of the IC20 value of the cytotoxicity assay. Only tyrosine and α-MSH are added to the controls. After incubation, sodium hydroxide solution (final concentrations: 1 M) is added to the culture medium and the absorption (A) is measured after 3 h at 400 nm.
The inhibition of pigmentation in the presence of the test compounds was calculated using the following equation:
Inhibition of pigmentation (%)=100−[(Atest compound/Acontrol)×100]
wherein Atest compound=absorption of the wells with test substance and with cells Acontrol=absorption of the wells without test substance, but with cells
From the inhibition of pigmentation (%) in a series of dilutions of test compounds, the IC50 for each test compound is calculated. This is the concentration of a test compound at which pigmentation is inhibited by 50%. The results are compiled in Table 1:
Experimental procedure as described in Example 1. SymWhite® 377 stands for Phenylethyl resorcinol.
The Synergy Index (SI)^1 is calculated according to Kull's equation as follows: […]
with A: individual result of substance A B: individual result of substance B C: result of the mixture of A and B D: percentage of substance Ain the mixture E: percentage of substance B in the mixture ^1 The calculation of the synergy index (SI-value) was carried out on the basis of following literature: D. C. Steinberg, Cosmetics & Toiletries 2000, 115 (11), 59-62 and F. C. Kull et al., Applied Microbiology 1961, 9, 538-541.
In contrast to the given examples in the literature, in which reduced values for A, B and C (i.e. the minimal concentration of inhibition in antimicrobial tests) mean better activity and consequently SI values <1 document a synergistic effect, increasing values of the here analysed melanin inhibition mean better efficacy. According to Kull's equation the evidence for a synergistic effect results for SI values >1. In the experiments with Sclareolide and SyrnWhite® 377 the calculated SI values obviously exceed 1 (experiments 1 and 2). From this it follows that a composition of Sclareolide and SymWhite® 377 constitutes a potent synergistic combination of active ingredients.

IC50 | Structure (SMILES) | Melanin inhibition (Ex. 1, Kull variable A, conc. 3.2 μm) | Melanin inhibition (Ex. 2, Kull variable A, conc. 3.2 μm) | Melanin inhibition (Ex. 1, Kull variable B, conc. 1.6 μm) | Melanin inhibition (Ex. 2, Kull variable B, conc. 1.6 μm)
10.2 µM | CC1(C)CCC[C@]2(C)C3CC(=O)O[C@]3(C)CC[C@@H]12 (stereo partly drawn) [Sclareolide, (3aR,5aS,9aS,9bR)-decahydro-3a,6,6,9a-tetramethyl-naphtha[2,1-b]furan-2(1H)-one] | 50.0% | 35.8% | – | –
67 µM | OC[C@H]1O[C@@H](Oc2ccc(O)cc2)[C@H](O)[C@@H](O)[C@@H]1O [beta-Arbutin] | – | – | – | –
452 µM | O=c1cc(CO)occ1O [Kojic acid, 5-hydroxy-2-hydroxymethyl-4-pyranone] | – | – | – | –
– | CC(c1ccccc1)c1ccc(O)cc1O (stereo not shown) [SymWhite ® 377, 4-(1-phenylethyl)1,3-dihydroxybenzene] | – | – | 59.8% | 55.9%
